The record followed here is patent US6624188B1, “Method of treatment with compounds having retinoid-like activity and reduced skin toxicity and lacking teratogenic effects” (Allergan, Inc., priority 1992, dated 2003).

Converted amounts (≈) assume the structure as drawn.

One data set concerns human sebocyte cultures. Briefly: human sebocyte culture 3H-thymidine incorporation (DNA synthesis, anti-proliferative effect). The format is cell-based. The conditions noted are these: human sebocytes, 8 days treatment, FIG. 2. From the text: The retinoid like activity of the compounds used in accordance with the method of treatment of the present invention and of the novel compounds of the invention can be confirmed by several assay procedures. An assay involving human sebocyte cultures measures the inhibition of ^3H-thymidine into cells, and thus measures inhibition of DNA synthesis and thus an anti-proliferative effect on sebocyte (i.e. a sebostatic effect). This assay is also considered a specific assay for effectiveness of a compound as a potential anti-acne drug. The test is conducted as follows.
Face-lift or forehead reduction skins from cosmetic surgeries were used as sources of human sebaceous gland cells (sebocytes).
Isolated sebocytes were plated in type 1 collagen coated-dishes in DMEM/F12 (1:1) medium supplemented with 8% fetal bovine serum, 2% human serum, 10 ng/ml epidermal growth factor, 1 nM cholera toxin, 1 μM hydrocortisone, and penicillin/streptomycin/amphotericin B. Secondary cultures were prepared by plating Dispase dissociated cells in collagen coated 24-well plates.
Sub-confluent secondary cultures were treated with the test compounds or ethanol vehicle every 2-3 days for 8 days in the above medium from which the total serum concentration was reduced to 2% and hydrocortisone was not included. During the last 6 hours of treatment, the cultures were labeled with 2 μCi/ml ^3H-thymidine. DNA from the cells were extracted by thichoroacetic acid and perchloric acid, and assayed for radioactivity by scintillation counting and for content of DNA by the diphenylamine calorimetric method. The results were expressed as CPM/μg DNA, or as per cent of vehicle control which incorporated about 1,000-1,500 cpm/μg DNA.
(Uptake of a labelled nucleoside into DNA is a usual measure of proliferation.)

Data set [1] has as its system limb bud mesenchymal cells. Briefly: inhibition of chondrogenesis in high-density spot cultures of limb bud mesenchymal cells. The format is cell-based. The note with it: Mus musculus; limb bud mesenchymal cell spot cultures, terminated 96 hours after plating; read-out: IC50 (concentration which inhibited chondrogenesis by 50%). From the text:
In an in vitro bioassay which measures inhibition of chondrogenesis (bone formation) in […] as a classic measure of teratogenecity the results shown in Table 2 were obtained. The assay is described as follows:
High-density “spot” cultures of limb bud mesenchymal cells were used to compare the ability of various concentrations of test drugs to suppress chondrogenic differentiation as a bioassay. Forelimb buds of mouse embryos on day 12 of gestation (54±2 somites) were dissociated in a trypsin-EDTA solution, and the resultant single-cell suspension was plated as 20-μl spots (200,000 cells/spot) on plastic culture dishes. Retinoid concentrations ranging from 0.3 ng/ml to 3 μg/ml (1 nM-10 μM) were added to the culture medium (Eagle's MEM+10% fetal bovine serum, GIBCO) 24 hours after initial plating. […]
The cultures were terminated 96 hours after plating, at which time the medium was removed and the cells were fixed for 1 hour in 10% formalin containing 0.5% cetylpyridinium chloride. The cultures were rinsed in acetic acid and stained for 1 hour in 0.5% Alcian blue solution at pH 1.0, differentiated in 3% acetic acid, and then dehydrated in ethanol and scored for chondrogenesis under the microscope. […] The number of cartilage nodules stained in the whole spot, mean number of nodules, and standard deviations were calculated for four replicate cultures per treatment. […]

Data set [2] in a line: pharmacokinetic study, drug concentration in maternal plasma and embryo after oral intubation. The format is in vivo. The note with it: mice, 10mg/kg dose, FIG. 1. How it is done: FIG. 1 is a graph showing the concentration of compound AGN 191701 in nanograms per ml, or nanograms per gram as indicated on the chart, in the plasma and embryo of mice at various times after oral intubation of a single dose of 10 mg/kg of the compound.
In contrast, the teratogenecity of prior art compound AGN 191183 is so high that even an undetectably low concentration of the drug already causes defective embryos.

For the next data set, the system named is gestating ICR mice. Kind of data set: in vivo teratology study, single oral dose on day 11 of gestation. Further details: species or system mouse. The conditions noted are these: mouse, in vivo; for # Litters Normal / Teratogenic Effects % Cleft Palate / Teratogenic Effects % Limb Defects / Teratogenic Effects % Resorbed: po. How it is done: The methodology of the study is described as follows:
ICR mice (Ace Animals, Boyertown, Pa.) were used. Mature male and virgin female ICR mice were housed in environmentally controlled rooms and acclimatized to a 12 hour light/dark cycle (light cycle 6 A.M. to 6 P.M.) for 2 weeks prior to use. All animals were maintained on Purina Lab Chow and tap water ad libitum. A group of 3-4 females was caged with a single male of proven fertility for 4 hours. Presence of a vaginal plug immediately afterward was regarded as evidence of successful mating, and this day was designated as day 0 of gestation.
[…] All animals were killed by cervical dislocation under mild ether anesthesia on day 17 of gestation. Upon laparotomy, the fetuses were examined for external malformations and weighed; one-half of each litter was then fixed in 95% ethanol and processed for staining of the skeleton by the rapid, alizarin red-S dye method. These preparations were examined under a dissection microscope to screen for abnormalities in the axial and the appendicular skeleton. The other half of each litter was fixed in Bouin's solution and examined by freehand razor serial sectioning to screen for anomalies of the brain, face, and palate.
Differences in dose-related incidence of malformations and resorptions were assessed by computing percentages of affected conceptuses among total implantation sites. The groups were compared statistically by a method based on Student's t-tests of arcs in square root transformed percentages. Values at 0.05 probability level were considered significant. The median effective dose was calculated by logarithmic curve fitting of the dose-response data.

The subject of data set [3] is tissue transglutaminase (tTGASE) in HL-60 cells. Briefly: Tissue Transglutaminase Assay (tTGASE) in HL-60 Cells. The format is cell-based. The conditions noted are these: FIGS. 6-9. How it is done: Other assays in which the retinoid like activity of the compounds used in accordance with the invention are confirmed are the HL-60 transglutaminase induction and HL-60 differentiation assay, the procedures of which are described as follows.
HL-60 cells were grown as a suspension culture in T-162 cm^2 flasks in serum-free RPMI 1640 medium supplemented with insulin (5 μg/ml), transferrin (5 μg/ml), and selenium (3 nM). The cells (1×10^6 cells/well, in 6-well dishes) were treated with serial dilutions of test compounds in the above RPMI 1640 medium which was additionally supplemented with […] dibutyryl cyclic adenosine monophosphate, a component found to be necessary for efficient differentiation of the cells. Ethanol was used in the vehicle control cultures. After 1 days of incubation at 37° C. in a 7.5% CO2 incubator, the cells were collected in a set of tubes and pelleted by centrifugation. The cells were lyzed in a buffer containing 20 mM Tris-HCl, pH 7.5, 1 mM EDTA, and 0.5% Triton X-100. An aliquot of the cell lysate was assayed for tTGASE activity in a reaction mixture containing 20 mM Tris-HCl, pH 7.5, 5 mM CaCl2, 2 mg/ml dimethylcasein, 15 mM B-mercaptoethanol and 50 μCi/ml [2,3-^3H] putrescine dihydrochloride. The reaction was carried out for 60 minutes in a 37° C. shaking water bath. The reaction was stopped by an addition of 10% trichloroacetic acid containing 0.1% putrescein. An aliquot of the stopped reaction mixture was spotted on Whatman 3 MM filter discs. The filter discs, along with the control blank filter discs, were washed twice with 5% trichloroacetic acid containing 0.1% putrescein and twice with methanol. After drying under a heat lamp, the radioactivity in the filter discs was determined by scintillation counting. An aliquot of the cell lysates was also assayed for […] by the Bradford method (Bio-Rad). After subtracting the radioactivity from the control blank filter discs, the data were calculated and expressed as pmol/min/mg protein.
As is well understood in the art, induction of tranglutaminase activity in the just-described assay is an early marker of retinoid like activity.

[4] abbreviates: female, ICR, 1 mg/kg, 17 day of gestation.
Where [5] appears, read: female, ICR, 10 mg/kg, 17 day of gestation.
Setting [6] is: female, ICR, 100 mg/kg, 17 day of gestation.

For the compound `C/C(=C\c1cc(C(=O)O)cs1)c1cc2c(cc1C)C(C)(C)CCC2(C)C` [AGN 191701, 2-[(E)-2-(5,6,7,8-Tetrahydro-3,5,5,8,8-pentamethylnaphthalen-2-yl)propen-1-yl]thiophene-4-carboxylic Acid], the “inhibition of 3H-thymidine incorporation (effectiveness in sebocyte assay)” value in the data set on human sebocyte cultures was “effective”. Also, the IC50 in data set [1] was found to be 19 µg/mL (≈ 51.6 µM). The “concentration of the drug in the maternal plasma and in the embryo” value in data set [2] is reported as “present in substantial concentration”. Further, the “times less teratogenic than AGN 191183” value in the data set with gestating ICR mice (female, ICR, 17 day of gestation) is reported as “approximately 10^4 times”. In addition, in the data set with gestating ICR mice (setting [4]), the “# Litters Normal” value came out at 1, the “Teratogenic Effects % Cleft Palate” value stood at 0%, the “Teratogenic Effects % Limb Defects” value is recorded as 0% and the “Teratogenic Effects % Resorbed” value was determined as 18%. Also, in the data set with gestating ICR mice (setting [5]), the “# Litters Normal” value was 3, the “Teratogenic Effects % Cleft Palate” value stood at 0%, the “Teratogenic Effects % Limb Defects” value was determined as 0% and the “Teratogenic Effects % Resorbed” value turned out to be 14%. In the data set on gestating ICR mice (setting [6]), the “# Litters Normal” value is reported as 2, the “Teratogenic Effects % Cleft Palate” value is 19%, the “Teratogenic Effects % Limb Defects” value is given as 22% and the “Teratogenic Effects % Resorbed” value is 2%. In addition, the “teratogenic effect (in words)” value with gestating ICR mice is reported as “very little teratogeneic effect”. In data set [3], the “induction of transglutaminase activity” value is given as “active”.
